pKi: −log10 of the molar value.
Legend:
ALK-wt kinase domain = target: T1, ALK-wt kinase domain (Homo sapiens, UniProt Q9UM73); assay: Biochemical kinase assay, ALK-wt; conditions: 2 mM ATP substrate solution, read-out: Ki^app ALK-wt
T1 construct: TRKA-wt (1 nM, BPS Bio, 40280) kinase domains in buffer; purchased Carna 08-518
Outline: (§1)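 Compound in DMSO added first, then substrate solution (ATP 2 mM; AQT0101 or AQT0104, 26 μM; pH 7.5 HEPES, 10 mM MgCl2), then kinase solution with enzyme at 0.5–3 nM depending on construct. Kinetic read every 2 min for 120 min at 30° C; Ki^app by Morrison regression.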

[1] = target: T2, ALK L1196M/G1202R kinase domain (Homo sapiens, UniProt Q9UM73, G1202R/L1196M); assay: Biochemical kinase assay, ALK L1196M/G1202R; conditions: 2 mM ATP substrate solution, read-out: Ki^app ALK-L1196M-G1202R
T2 construct: TRKA-wt (1 nM, BPS Bio, 40280) kinase domains in buffer; purchased SignalChem A19-12NG
Outline: as §1

ROS1-wt kinase domain = target: T3, ROS1-wt kinase domain (Homo sapiens, UniProt P08922); assay: Biochemical kinase assay, ROS1-wt; conditions: 2 mM ATP substrate solution, read-out: Ki^app ROS1-wt
T3 construct: TRKA-wt (1 nM, BPS Bio, 40280) kinase domains in buffer; purchased Carna 08-163
Outline: as §1

[2] = target: T4, ROS1-G2032R kinase domain (Homo sapiens, UniProt P08922, G2032R); assay: Biochemical kinase assay, ROS1-G2032R; conditions: 2 mM ATP substrate solution, read-out: Ki^app ROS1-G2032R
T4 construct: TRKA-wt (1 nM, BPS Bio, 40280) kinase domains in buffer; purchased SignalChem R14-12BG
Outline: as §1

TRKA-wt kinase domain = target: T5, TRKA-wt kinase domain (Homo sapiens, UniProt P04629); assay: Biochemical kinase assay, TRKA-wt; conditions: 2 mM ATP substrate solution, read-out: Ki^app TRKA-wt
T5 construct: TRKA-wt (1 nM, BPS Bio, 40280) kinase domains in buffer; purchased BPS Bio 40280
Outline: as §1

Compound	pKi (ALK-wt kinase domain)	pKi [1]	pKi (ROS1-wt kinase domain)	pKi [2]	pKi (TRKA-wt kinase domain)
CCn1ncc2c1-c1cnc(N)c(c1)OCc1cc(F)ccc1-n1ncc(F)c1C2 [Compound 48]	> 7.30	> 7.30	> 7.30	> 7.30	< 6.30
C[C@H]1Oc2cc(cnc2N)-c2c(cnn2CC2CC2)Cc2cn(C(F)F)nc2-c2ccc(F)cc21 [Compound 160]	> 7.30	> 7.30	> 7.30	> 7.30	< 6.30
Cc1nn(CC2CC2)c2c1Cc1cn(C)nc1-c1ccc(F)cc1[C@@H](C)Oc1cc-2cnc1N [Compound 53]	> 7.30	> 7.30	> 7.30	> 7.30	6.30 to 7.30
CC1Oc2cc(cnc2N)-c2c(nn(C)c2C#N)Cc2cnccc2-c2ccc(F)cc21 (stereo not shown) [Compound 59]	> 7.30	< 6.30	> 7.30	6.30 to 7.30	6.30 to 7.30
CCc1nn(C)c2c1-c1cnc(N)c(c1)O[C@H](C)c1cc(F)ccc1-c1nn(C)cc1C2 [Compound 171]	> 7.30	> 7.30	> 7.30	> 7.30	> 7.30
CCn1ncc2c1-c1cnc(N)c(c1)O[C@H](C)c1cc(F)ccc1-c1nc(OC)ccc1C2 [Compound 145]	> 7.30	> 7.30	> 7.30	> 7.30	6.30 to 7.30
C[C@H]1Oc2cc(cnc2N)-c2c(C#N)ncn2Cc2cnccc2-c2ccc(F)cc21 [Compound 10]	> 7.30	> 7.30	> 7.30	> 7.30	< 6.30
CCn1ncc2c1-c1cnc(N)c(c1)OCc1cc(F)ccc1-c1nn(C)cc1C2 [Compound 49]	> 7.30	6.30 to 7.30	> 7.30	6.30 to 7.30	< 6.30
Cc1nc2c(s1)Cc1c(C)nn(CC3CC3)c1-c1cnc(N)c(c1)O[C@H](C)c1cc(F)ccc1-2 [Compound 134]	> 7.30	> 7.30	> 7.30	> 7.30	6.30 to 7.30
CCn1ncc2c1-c1cnc(N)c(c1)O[C@H](C)c1cc(F)ccc1-n1nc(OC)cc1C2 [Compound 98]	> 7.30	> 7.30	> 7.30	> 7.30	> 7.30
C[C@H]1Oc2cc(cnc2N)-c2c(C#N)nn(C)c2Cc2cc(Cl)nn2-c2ccc(F)cc21 [Compound 103]	> 7.30	> 7.30	> 7.30	> 7.30	6.30 to 7.30
CCn1ncc2c1-c1cnc(N)c(c1)O[C@H](C)c1cc(F)ccc1-c1nc(C)cn1C2 [Compound 45]	> 7.30	> 7.30	> 7.30	> 7.30	> 7.30
CC1Oc2cc(cnc2N)-c2c(cnn2C)Cc2cnn(C)c2-c2ccc(F)cc21 (stereo not shown) [Compound 2]	> 7.30	6.30 to 7.30	> 7.30	> 7.30	6.30 to 7.30
CCn1ncc2c1-c1cnc(N)c(c1)O[C@H](C)c1cc(F)ccc1-n1ncc(C#N)c1C2 [Compound 47]	> 7.30	6.30 to 7.30	> 7.30	> 7.30	6.30 to 7.30
CC1Oc2cc(cnc2N)-c2c(cnn2C2CCC2)Cn2ccnc2-c2ccc(F)cc21 (stereo not shown) [Compound 37]	> 7.30	> 7.30	> 7.30	> 7.30	6.30 to 7.30
CCn1ncc2c1-c1cnc(N)c(c1)O[C@H](C)c1cc(F)ccc1-n1nc(Cl)cc1C2 [Compound 74]	> 7.30	> 7.30	> 7.30	> 7.30	> 7.30
CCn1nc(C(C)C)c2c1-c1cnc(N)c(c1)O[C@H](C)c1cc(F)ccc1-c1nn(C)cc1C2 [Compound 153]	> 7.30	> 7.30	> 7.30	> 7.30	> 7.30
C[C@H]1Oc2cc(cnc2N)-c2c(nnn2CC2CC2)Cc2cn(C)nc2-c2ccc(F)cc21 [Compound 29]	> 7.30	> 7.30	> 7.30	> 7.30	6.30 to 7.30
CCn1ncc2c1-c1cnc(N)c(c1)O[C@H](C)c1cc(F)ccc1-c1nn(C)c(C)c1C2 [Compound 87]	> 7.30	> 7.30	> 7.30	> 7.30	> 7.30

Compound	pKi (ALK-wt kinase domain)	pKi [1]	pKi (ROS1-wt kinase domain)	pKi [2]	pKi (TRKA-wt kinase domain)
Cc1nc2c(s1)Cn1ncc(C(F)F)c1-c1cnc(N)c(c1)O[C@H](C)c1cc(F)ccc1-2 [Compound 68]	> 7.30	> 7.30	> 7.30	> 7.30	6.30 to 7.30
CCc1nsc2c1-c1cnc(N)c(c1)O[C@H](C)c1cc(F)ccc1-c1nn(C)cc1C2 [Compound 155]	> 7.30	> 7.30	> 7.30	> 7.30	> 7.30
C[C@H]1Oc2cc(cnc2N)-c2c(CC(F)F)nn(C)c2Cc2cc(C(F)F)nn2-c2ccc(F)cc21 [Compound 180]	> 7.30	> 7.30	> 7.30	> 7.30	6.30 to 7.30
CCn1ncc2c1-c1cnc(N)c(c1)O[C@H](C)c1cc(F)ccc1-c1nocc1C2 [Compound 99]	> 7.30	> 7.30	> 7.30	> 7.30	6.30 to 7.30
C[C@H]1Oc2cc(cnc2N)-c2c(C#N)nn(C)c2Cc2cc(F)cnc2-c2ccc(F)cc21 [Compound 105]	> 7.30	> 7.30	> 7.30	> 7.30	< 6.30
Cc1cc2n(n1)-c1ccc(F)cc1[C@@H](C)Oc1cc(cnc1N)-c1c(cnn1CC1CC1)C2 [Compound 109]	> 7.30	> 7.30	> 7.30	> 7.30	> 7.30
Nc1ncc2cc1OCc1cc(F)ccc1-n1nc(C(F)F)cc1Cc1cnn(CC3CC3)c1-2 [Compound 138]	> 7.30	> 7.30	> 7.30	> 7.30	< 6.30
CCn1ncc2c1-c1cnc(N)c(c1)O[C@H](C)c1cc(F)ccc1-n1nccc1C2 [Compound 33]	> 7.30	> 7.30	> 7.30	> 7.30	> 7.30
C[C@H]1Oc2cc(cnc2N)-c2c(nn(C)c2CC2CC2)Cc2ccnn2-c2ccc(F)cc21 [Compound 177]	> 7.30	> 7.30	> 7.30	> 7.30	6.30 to 7.30
C[C@H]1Oc2cc(cnc2N)-c2c(c(Cl)nn2CC(F)F)Cc2cn(C)nc2-c2ccc(F)cc21 [Compound 83]	> 7.30	> 7.30	> 7.30	> 7.30	< 6.30
C[C@H]1Oc2cc(cnc2N)-c2c(C#N)cnn2Cc2ccnn2-c2ccc(F)cc21 [Compound 62]	> 7.30	> 7.30	> 7.30	6.30 to 7.30	< 6.30
CC1Oc2cc(cnc2N)-c2c(C#N)ncn2Cc2cnn(C)c2-c2ccc(F)cc21 (stereo not shown) [Compound 167]	> 7.30	6.30 to 7.30	> 7.30	6.30 to 7.30	< 6.30
C[C@H]1Oc2cc(cnc2N)-c2c(nn(C)c2C#N)Cc2cccnc2-c2ccc(F)cc21 [Compound 112]	> 7.30	> 7.30	> 7.30	> 7.30	6.30 to 7.30
CCc1onc2c1-c1cnc(N)c(c1)O[C@H](C)c1cc(F)ccc1-c1nn(C)cc1C2 [Compound 152]	> 7.30	> 7.30	> 7.30	> 7.30	> 7.30
C[C@H]1Oc2cc(cnc2N)-c2c(nn(C)c2CC2CC2)Cc2cn(C)nc2-c2ccc(F)cc21 [Compound 179]	> 7.30	> 7.30	> 7.30	> 7.30	6.30 to 7.30
CCn1ncc2c1-c1cnc(N)c(c1)O[C@H](C)c1cc(F)ccc1-c1nccn1C2 [Compound 31]	> 7.30	> 7.30	> 7.30	> 7.30	> 7.30
Nc1ncc2cc1OCc1cc(F)ccc1-n1nc(Cl)cc1Cc1nnn(CC3CC3)c1-2 [Compound 110]	> 7.30	> 7.30	> 7.30	> 7.30	< 6.30
CCn1ncc2c1-c1cnc(N)c(c1)OCc1cc(F)ccc1-n1nccc1C2 [Compound 41]	> 7.30	> 7.30	> 7.30	> 7.30	< 6.30
C[C@H]1Oc2cc(cnc2N)-c2c(c(Cl)nn2CC2CC2)Cc2cn(C)nc2-c2ccc(F)cc21 [Compound 133]	> 7.30	> 7.30	> 7.30	6.30 to 7.30	< 6.30

Source: patent US11667649B2, “Heteroaromatic macrocyclic ether chemotherapeutic agents” (Nuvalent, Inc., priority 2020, dated 2023)
